The source of these data is patent US20180015455A1, “ADDITIVE CHANNELS” (Emulate Inc., priority 2016, published 2018).

Series [1] relates to platelets. The series can be described thus: Vessel-On-Chip blood perfusion: platelet coverage/aggregation by fluorescence imaging. Format: cell-based, human. On the procedure:
(§1) Briefly, human blood was drawn in citrate buffer and used within 4 hours. Platelets were stained using fluorescently labeled non-blocking antibodies for the platelet surface marker CD41 and low dosages of fluorescent fibrinogen were added in order to visualize fibrin deposition. Blood was re-calcified in order to re-establish the full coagulation potential, then introduced in the biomimetic vessel-on-chip from the main inlet (embodiments of inlets shown in FIG. 18A-1, FIG. 18A-2 and FIG. 19C). The outlet of the chip was connected to a pulling syringe pump with a system of tubing and connectors made of medical grade silicon that excludes any metal components or potential causes of platelet activation (FIG. 5A).
Platelets were labeled with human CD41-PE antibody (10 μL/ml, Invitrogen) directly added to the blood and incubated at room temperature for 5 minutes.
A medical grade plastic reservoir was mounted on the chip, then 800 μl of the blood sample was pipetted into the reservoir. The chip was perfused with the blood by withdrawing it at a rate of 60 μl/minute using a syringe pump. The citrated blood was re-calcified 2 minutes after the beginning of each experiment by adding 100 μl/ml of a solution containing 100 mM calcium chloride and 75 mM magnesium chloride to the blood to permit calcium- and magnesium-dependent platelet function and coagulation.
Chips perfused with blood samples were immediately imaged via fluorescence microscopy (Olympus IX83, 10× objective UPLFLN10X2, Orca-Flash4.0 CMOS Camera). Each chamber was inspected along its entire length and 5 images (about 0.25 cm) were captured from the central area of the chamber. Image processing and quantification was performed with an automatic macro compiled in ImageJ and numerical values corresponding to platelet coverage or fibrin florescence were collected and statistically analyzed in Graphpad Prism V7.
(§2) A percentage of signal coverage (or Platelet coverage) was computed from the binary image as the ratio of bright pixels to the total number of pixels in the image. Image processing and quantification was performed with an automatic macro compiled in ImageJ in order to ensure unbiased signal measurements. Numerical values corresponding to platelet coverage or fibrin fluorescence (signal intensity) were collected and statistically analyzed in Graphpad Prism V7.

For the next series, the system named is fibrin. The series can be described thus: Vessel-On-Chip blood perfusion: fibrin deposition (fluorescent fibrinogen). Format: cell-based, human. As for the experimental part: as §1
When analyzing the formation of fibrin, […] of fluorescently labeled fibrinogen (Alexa 488, Invitrogen) was also added to the blood. While fluorescent fibrinogen was barely detected as a diffused fluorescence, fibrin deposition on inflamed cells and sparse clots was easily distinguished since fibrin formed filamentous structures produce a signal intensity that is clearly observed above a background threshold.
Chips perfused with blood samples were immediately imaged via fluorescence microscopy (Olympus IX83, 10× objective UPLFLN10X2, Orca-Flash4.0 CMOS Camera). […] Image processing and quantification was performed with an automatic macro compiled in ImageJ and numerical values corresponding to platelet coverage or fibrin florescence were collected and statistically analyzed in Graphpad Prism V7.
as §2

Series [2] concerns thrombin anti-thrombin complex (TAT). Briefly: Thrombin anti-thrombin (TAT) ELISA in chip effluent plasma. Type of series: cell-based, human. As for the experimental part:
Thrombin converts fibrinogen into fibrin during clot formation, and anti-thrombin plays a role in maintaining homeostasis by inhibiting the effect of thrombin. Formation of TAT in the microdevice confirms that local and intrinsic generation of thrombin, a potent platelet agonist, occurs in the model and that counter regulatory mechanisms for coagulation are retained. Thus, blood sampled from the Vessel-On-Chip was analyzed for thrombin anti-thrombin complex (TAT), an accepted clinical biomarker for procoagulation^48,49. TAT refers to a factor released upon activation of the coagulation cascade and one of the biomarkers associated with thrombotic events occurring in patients affected with deep vein thrombosis (DVT) or Systemic lupus erythematosus (SLE)^45,46. An enzyme-linked immunosorbent assay (ELISA) was used to quantify the thrombin anti-thrombin complex (TAT).
Thrombin Anti-Thrombin (TAT) levels were analyzed in plasma from blood flowing out of the chip device by removing a sample from the outflow port. Thus TAT levels were evaluated in sample effluents collected from the outflow port of the chip using the Human TAT ELISA Kit (Siemens Healthineers) according to the user manual.
Blood sampled from the Vessel-On-Chip outflow port was analyzed for thrombin anti-thrombin complex (TAT), a factor released upon activation of the coagulation cascade and one of the biomarkers associated with thrombotic events occurring in patients affected with deep vein thrombosis (DVT) or SLE^45,46. TAT is an accepted clinical biomarker for procoagulation^48,49. An enzyme-linked immunosorbent assay (ELISA) was used to quantify the thrombin anti-thrombin complex (TAT).

In the next series the test system is ICAM1. Briefly: ICAM1 immunostaining of endothelium. Format: cell-based, human. Particulars: TNF-α stimulated endothelium.
For series [3] the following is noted: hu5C8: lupus nephritis clinical study; IDEC-131: Crohn's disease clinical trial; cited from earlier work.
Series [4] has as its system platelets. Briefly: Platelet activation quality control by p-selectin expression. Type of series: cell-based, human. Particulars: control blood upon activation by ADP. On the procedure:
To test for a thrombic event, blood was collected from 4 donors, the as blood alone or blood treated with hu5C8 alone (240 μg/mL), sCD40L (10 ng/ml) alone or with combined hu5C8/sCD40L was incubated for 20 minutes at room temperature. Each sample was further incubated for 5 minutes with fluorescent labels for platelets and fibrinogen. As a standard quality control, the control blood was tested for platelet activation using p-selection expression. We confirmed that platelets in control blood were not activated but upon activation by ADP, over 90% of platelet was positive for p-selectin.

In a further series the target is T1, FcγRIIa (Homo sapiens, UniProt P12318).
T1 construct: Blood from several human donors were aliquoted into groups for the following treatments; host or cells: platelets in citrated human whole blood from donors, perfused over HUVEC-lined chips
T1 sequence (P12318 34-317): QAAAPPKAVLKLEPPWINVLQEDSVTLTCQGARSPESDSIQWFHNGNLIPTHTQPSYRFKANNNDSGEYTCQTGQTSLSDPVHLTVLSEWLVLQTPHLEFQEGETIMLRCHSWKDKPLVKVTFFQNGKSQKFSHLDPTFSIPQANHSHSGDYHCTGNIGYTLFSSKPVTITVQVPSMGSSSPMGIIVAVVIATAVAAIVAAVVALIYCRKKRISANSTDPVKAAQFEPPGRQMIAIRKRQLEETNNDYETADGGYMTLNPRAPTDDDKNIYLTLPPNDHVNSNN
The series can be described thus: Vessel-On-Chip hu5C8-mediated thrombosis, FcγRIIa dependence (platelet coverage, fibrin deposition, TAT). Format: cell-based. Particulars: FcγRIIa blocked with IV.3 (1 μg/ml) or non-FcγRIIa binding IgG2σ variant, with sCD40L 10 ng/ml. An excerpt: Recent studies conducted on humanized mice expressing the human Fcγ receptors (FCGR2A) have shown that this receptor plays a role in thrombosis leading to the IC-mediated toxicity^12,16,21. […] In order to investigate if the ICs-induced thrombosis that we observed in our vessel-on-chip system also relies on an Fc-mediated mechanism, we used two different tool molecules: IgG2a and IV.3 (FIG. 25A). The IgG2σ variant of hu5C8 has an engineered Fc region^48 that eliminates affinity for the FcγRIIa, while the monoclonal antibody IV.3 is a blocking antibody binding to FcγRIIa. Briefly, equimolar concentrations of IgG2σ or hu5c8 were incubated with 10 ng/ml of sCD40L for 20 minutes to form ICIgG2σ or IC5c8, respectively.
Some of the blood samples were treated with IV.3 (1 μg/ml) for 10 minutes to block the FcγRIIa, and then incubated for 20 more minutes with ICs. Finally, blood alone (control) or blood incubated with IC5c8, ICIgG2σ or IV.3 was perfused through the biomimetic microfluidic-on-chip for about 10 minutes. We tested 15 donors and all the tested conditions described above were tested in duplicates and analyzed as percentage of platelet coverage based on fluorescence microscopic imaging (FIG. 25B). Five of the donors were also tested for fibrin deposition (FIG. 25C). Finally, effluents plasma obtained from a total of 7 of the donors (including the 5 mentioned before) were used to assess TAT via ELISA (FIG. 25D). […]
Blood from several human donors were aliquoted into groups for the following treatments: controls (PBS), sCD40L, combined hu5C8/sCD40L, combined hu5C8 (IgG2σ)/sCD40L combined, and combined hu5C8/sCD40L/IV.3. Each condition was tested with a minimum of 3 donors to a maximum of 15 donors, and all conditions were tested in duplicates and analyzed for platelet coverage (FIG. 25B), fibrin deposition (FIG. 25C), or increased formation of TAT measured in the eluates (FIG. 25D). […]

Setting [5] is: pro-thrombotic stimulus vs blood alone, TNF-α 50 ng/ml 6 hours on endothelium, sCollagen 10 μg/ml in blood.
Setting [6] is: Eptifibatide 2 ug/ml, endothelium inflamed with TNF-α, n=4.

“Also recorded” adds a separate entry of the source. Positions of bridges follow the written chain, without caps; N, C: chain ends. Non-standard residues stand in square brackets, D forms with d. Residues, ends and D or L forms follow the SMILES beside them. hArg = N=C(N)NCCCC[C@H](N)C(=O)O; Mpa = O=C(O)CCS

As to TNF-α, in the series on platelets [1] (setting [5]), the platelet coverage entry is on record as “significantly increased”. The “fibrin deposition / fibrin signal intensity” value in the series on fibrin (setting [5]) is on record as “significantly increased”. The “levels of TAT in outflow samples” value in series [2] (after treatment, FIG. 22B) was “significantly increased; also recorded: elevated levels”. Also, the “ICAM1 expression in the endothelium compared to control” value in the series with ICAM1 is “increased expression; also recorded: higher”.
For the molecule “hu5C8: humanized monoclonal IgG1 antibody against CD40L (anti-CD154)”, the “treatment-related effects compared to untreated blood” value in the series on platelets [1] (hu5C8 alone 240 μg/mL or sCD40L alone 10 ng/ml, 4 donors, 60 μl/minute) is reported as “no significant treatment-related effects”. For the same molecule, the “incidence of thromboembolic events” value in series [3] is 2/18.
For the molecule `Nc1ncnc2c1ncn2[C@@H]1O[C@H](COP(=O)(O)OP(=O)(O)O)[C@@H](O)[C@H]1O` [ADP], in the series on platelets [4], the “platelets positive for p-selectin” value is recorded as “over 90%”.
For the molecule `N=C(N)NCCCC[C@@H]1NC(=O)CCSSC[C@@H](C(N)=O)NC(=O)[C@@H]2CCCN2C(=O)[C@H](Cc2c[nH]c3ccccc23)NC(=O)[C@H](CC(=O)O)NC(=O)CNC1=O` [Eptifibatide] ([Mpa][hArg]GDWPC-NH2; disulfide 1-7), the “inhibition of platelet aggregation” value in the series on platelets [1] (setting [6]) is reported as “significantly inhibited”. Moreover, the “inhibitory effect on platelet aggregation and fibrin clot formation” value with platelets [1] (Eptifibatide 2 ug/ml, following treatment with sCollagen, n=4) was “comparatively modest”. Further, the “platelet adhesion (image analysis of multiple experiments)” value in the series on platelets [1] (Eptifibatide 2 ug/ml, n=4) is reported as “completely inhibited”. Also, the “effect on platelet coverage and fibrin deposition in stimulated, pro-thrombotic conditions” value in the series with platelets [1] (Eptifibatide added, TNF-α or sCollagen, n=4) is listed as “suppressed; also recorded: inhibited”. The “inhibition of fibrin clot formation” value in the series on fibrin (setting [6]) is reported as “significantly inhibited”. Also, in the series with fibrin (Eptifibatide 2 ug/ml, samples treated with TNF-α), the “fibrin signal remaining with Eptifibatide” value was “still detectable”. Further, in series [2] (Eptifibatide treatment), the “effect on TAT increment associated with TNF-α-induced inflammation” value is given as “did not inhibit” and the “effect on TAT increment due to sCollagen treatment” value is on record as “entirely suppressed”.
On to “hu5C8 (IgG2σ): IgG2σ variant of hu5C8 with an engineered Fc region that eliminates affinity for FcγRIIa”, for which the “hu5C8-mediated thrombosis on-chip (all endpoints)” value was “did not show signs of thrombosis” with FcγRIIa, “suppressed” with FcγRIIa (listed as IgG2σ) and “not detected” with FcγRIIa (listed as hu5C8-IgG2σ).
